Laboratory results published in ChEMBL document CHEMBL1159176, “Regioselective synthesis of 3-aryl substituted pyrrolidines via palladium catalyzed arylation: pharmacological evaluation for central dopaminergic and serotonergic activity” (Bioorg Med Chem Lett, 1997).

tested on: Rattus norvegicus; assay: Accumulation of Dihydroxyphenylalanine in cortical brain region in rat after injecting drug compound 65 min and NSD 1015 at a dose of 100 mg/kg administered subcutaneously, 30 min before death, tested in vivo; assay type: functional; settings: route subcutaneous

| Compound | Control [%] |
| --- | --- |
| CCCN1CCC[C@@H](c2cccc(S(C)(=O)=O)c2)C1 | 165 |
| CCCN1CCC(c2cccc3ccccc23)C1 (stereo not given) | 115 |
| CS(=O)(=O)c1cccc(C2CCNC2)c1 (stereo not given) | 104 |
| FC(F)(F)c1cccc(C2CCNC2)c1 (stereo not given) | 72 |
| c1ccc2c(C3CCNC3)cccc2c1 (stereo not given) | 104 |
| CCCN1CCC(c2cccc(O)c2)C1 (stereo not given) | 88 |

tested on: Rattus norvegicus; assay: Accumulation of Dihydroxyphenylalanine in striatal region in rat after injecting drug compound 65 min and NSD 1015 at a dose of 100 mg/kg administered subcutaneously, 30 min before death, tested in vivo; assay type: functional; settings: route subcutaneous

| Compound | Control [%] |
| --- | --- |
| CCCN1CCC[C@@H](c2cccc(S(C)(=O)=O)c2)C1 | 317 |
| CCCN1CCC(c2cccc3ccccc23)C1 (stereo not given) | 177 |
| CS(=O)(=O)c1cccc(C2CCNC2)c1 (stereo not given) | 91 |
| FC(F)(F)c1cccc(C2CCNC2)c1 (stereo not given) | 163 |
| c1ccc2c(C3CCNC3)cccc2c1 (stereo not given) | 82 |
| CCCN1CCC(c2cccc(O)c2)C1 (stereo not given) | 153 |

tested on: Rattus norvegicus; assay: Accumulation of Dihydroxyphenylalanine in limbic region in rat after injecting drug compound 65 min and NSD 1015 at a dose of 100 mg/kg administered subcutaneously, 30 min before death, tested in vivo; assay type: functional, Limbic system; settings: route subcutaneous

| Compound | Control [%] |
| --- | --- |
| CCCN1CCC[C@@H](c2cccc(S(C)(=O)=O)c2)C1 | 228 |
| CCCN1CCC(c2cccc3ccccc23)C1 (stereo not given) | 118 |
| CS(=O)(=O)c1cccc(C2CCNC2)c1 (stereo not given) | 89 |
| FC(F)(F)c1cccc(C2CCNC2)c1 (stereo not given) | 113 |
| c1ccc2c(C3CCNC3)cccc2c1 (stereo not given) | 92 |
| CCCN1CCC(c2cccc(O)c2)C1 (stereo not given) | 113 |

tested on: Rattus norvegicus; assay: Accumulation of 5-Hydroxytryptophan in cortical brain region in rat after injecting drug compound 65 min and NSD 1015 at a dose of 100 mg/kg administered subcutaneously, 30 min before death, tested in vivo; assay type: functional; settings: route subcutaneous

| Compound | Control [%] |
| --- | --- |
| CCCN1CCC[C@@H](c2cccc(S(C)(=O)=O)c2)C1 | 78 |
| CCCN1CCC(c2cccc3ccccc23)C1 (stereo not given) | 57 |
| CS(=O)(=O)c1cccc(C2CCNC2)c1 (stereo not given) | 98 |
| FC(F)(F)c1cccc(C2CCNC2)c1 (stereo not given) | 70 |
| c1ccc2c(C3CCNC3)cccc2c1 (stereo not given) | 86 |
| CCCN1CCC(c2cccc(O)c2)C1 (stereo not given) | 79 |

target: T1, D(3) dopamine receptor (Rattus norvegicus, UniProt P19020); assay: Inhibitory concentration against [3H]spiperone binding to Dopamine receptor D3 expressed in CHO-K1 cells; assay type: cell-based; settings: not given
T1 sequence (P19020 whole entry): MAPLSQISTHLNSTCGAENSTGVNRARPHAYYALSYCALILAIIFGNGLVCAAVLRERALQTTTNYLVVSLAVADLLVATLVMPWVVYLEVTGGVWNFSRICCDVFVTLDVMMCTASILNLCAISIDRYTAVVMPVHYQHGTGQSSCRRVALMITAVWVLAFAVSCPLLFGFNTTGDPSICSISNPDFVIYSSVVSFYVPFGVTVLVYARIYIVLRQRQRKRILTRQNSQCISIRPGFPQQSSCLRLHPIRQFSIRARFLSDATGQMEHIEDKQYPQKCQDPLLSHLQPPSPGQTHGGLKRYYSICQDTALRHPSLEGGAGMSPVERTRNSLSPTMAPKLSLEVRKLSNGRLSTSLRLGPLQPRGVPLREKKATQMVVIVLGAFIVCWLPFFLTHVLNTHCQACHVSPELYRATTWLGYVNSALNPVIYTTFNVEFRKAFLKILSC

| Compound | IC50 [nM] |
| --- | --- |
| CCCN1CCC(c2cccc3ccccc23)C1 (stereo not given) | > 1000 |
| CS(=O)(=O)c1cccc(C2CCNC2)c1 (stereo not given) | > 1000 |
| c1ccc2c(C3CCNC3)cccc2c1 (stereo not given) | > 1000 |

target: T1, D(3) dopamine receptor; assay: Binding affinity against [3H]spiperone binding to Dopamine receptor D3 expressed in CHO-K1 cells; assay type: cell-based; settings: not given

| Compound | Ki [nM] |
| --- | --- |
| FC(F)(F)c1cccc(C2CCNC2)c1 (stereo not given) | 633 |
| CCCN1CCC(c2cccc(O)c2)C1 (stereo not given) | 52 |

target: T2, Serotonin 2 (5-HT2) receptor (Rattus norvegicus, UniProt P30994+P08909+P14842); assay: Binding affinity against [3H]ketanserin binding to 5-hydroxytryptamine 2 receptor expressed in CHO-K1 cells; assay type: cell-based; settings: not given

| Compound | Ki [nM] |
| --- | --- |
| CCCN1CCC(c2cccc3ccccc23)C1 (stereo not given) | 113 |
| FC(F)(F)c1cccc(C2CCNC2)c1 (stereo not given) | 227 |
| c1ccc2c(C3CCNC3)cccc2c1 (stereo not given) | 40 |

tested on: Rattus norvegicus; assay: Accumulation of Dihydroxyphenylalanine in limbic region in rat after injecting drug compound 65 min and NSD 1015 at a dose of 0.07 mg/kg administered subcutaneously, 30 min before death, tested in vivo; assay type: functional, Limbic system; settings: route subcutaneous

| Compound | Control [%] |
| --- | --- |
| O=C(CCCN1CCC(O)(c2ccc(Cl)cc2)CC1)c1ccc(F)cc1 [HALOPERIDOL] | 241 |

tested on: Rattus norvegicus; assay: Locomotor activity, measured for 30 min after injection of drug, administered subcutaneously at 100 umol/kg; assay type: functional; settings: not given

| Compound | Control [%] |
| --- | --- |
| O=C(CCCN1CCC(O)(c2ccc(Cl)cc2)CC1)c1ccc(F)cc1 [HALOPERIDOL] | 2 |
| CCCN1CCC[C@@H](c2cccc(S(C)(=O)=O)c2)C1 | 135 |
| CCCN1CCC(c2cccc3ccccc23)C1 (stereo not given) | 80 |
| CS(=O)(=O)c1cccc(C2CCNC2)c1 (stereo not given) | 71 |
| FC(F)(F)c1cccc(C2CCNC2)c1 (stereo not given) | 74 |
| c1ccc2c(C3CCNC3)cccc2c1 (stereo not given) | 129 |
| CCCN1CCC(c2cccc(O)c2)C1 (stereo not given) | 20 |

tested on: Rattus norvegicus; assay: Accumulation of Dihydroxyphenylalanine in striatal region in rat after injecting drug compound 65 min and NSD 1015 at a dose of 0.07 mg/kg administered subcutaneously, 30 min before death, tested in vivo; assay type: functional; settings: route subcutaneous

| Compound | Control [%] |
| --- | --- |
| O=C(CCCN1CCC(O)(c2ccc(Cl)cc2)CC1)c1ccc(F)cc1 [HALOPERIDOL] | 310 |

target: T3, 5-hydroxytryptamine receptor 1A (Rattus norvegicus, UniProt P19327); assay: Inhibitory concentration against [3H]8-OH-DPAT binding to 5-hydroxytryptamine 1A receptor expressed in CHO-K1 cells; assay type: cell-based; settings: not given
T3 sequence (P19327 whole entry): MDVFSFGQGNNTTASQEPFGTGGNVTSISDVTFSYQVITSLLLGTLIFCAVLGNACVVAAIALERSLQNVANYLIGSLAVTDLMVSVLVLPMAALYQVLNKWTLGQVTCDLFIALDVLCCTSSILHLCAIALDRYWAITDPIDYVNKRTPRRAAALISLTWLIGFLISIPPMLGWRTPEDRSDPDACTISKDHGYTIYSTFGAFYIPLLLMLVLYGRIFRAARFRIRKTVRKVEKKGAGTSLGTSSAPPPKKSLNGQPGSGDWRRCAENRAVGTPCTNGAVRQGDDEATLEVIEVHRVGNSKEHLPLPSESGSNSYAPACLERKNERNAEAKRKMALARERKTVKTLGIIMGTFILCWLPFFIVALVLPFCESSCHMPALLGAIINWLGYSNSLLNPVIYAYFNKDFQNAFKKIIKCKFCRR

| Compound | IC50 [nM] |
| --- | --- |
| CS(=O)(=O)c1cccc(C2CCNC2)c1 (stereo not given) | > 1000 |

target: T2, Serotonin 2 (5-HT2) receptor; assay: Inhibitory concentration against [3H]ketanserin binding to 5-hydroxytryptamine 2 receptor expressed in CHO-K1 cells; assay type: cell-based; settings: not given

| Compound | IC50 [nM] |
| --- | --- |
| CS(=O)(=O)c1cccc(C2CCNC2)c1 (stereo not given) | > 1000 |
| CCCN1CCC(c2cccc(O)c2)C1 (stereo not given) | > 1000 |

target: T3, 5-hydroxytryptamine receptor 1A; assay: Binding affinity against [3H]8-OH-DPAT binding to 5-hydroxytryptamine 1A receptor expressed in CHO-K1 cells; assay type: cell-based; settings: not given

| Compound | Ki [nM] |
| --- | --- |
| CCCN1CCC(c2cccc3ccccc23)C1 (stereo not given) | 73 |
| FC(F)(F)c1cccc(C2CCNC2)c1 (stereo not given) | 174 |
| c1ccc2c(C3CCNC3)cccc2c1 (stereo not given) | 95 |
| CCCN1CCC(c2cccc(O)c2)C1 (stereo not given) | 201 |

tested on: Rattus norvegicus; assay: Accumulation of 5-Hydroxytryptophan in limbic region in rat after injecting drug compound 65 min and NSD 1015 at a dose of 100 mg/kg administered subcutaneously, 30 min before death, tested in vivo; assay type: functional, Limbic system; settings: route subcutaneous

| Compound | Control [%] |
| --- | --- |
| CCCN1CCC[C@@H](c2cccc(S(C)(=O)=O)c2)C1 | 83 |
| CCCN1CCC(c2cccc3ccccc23)C1 (stereo not given) | 53 |
| CS(=O)(=O)c1cccc(C2CCNC2)c1 (stereo not given) | 96 |
| FC(F)(F)c1cccc(C2CCNC2)c1 (stereo not given) | 70 |
| c1ccc2c(C3CCNC3)cccc2c1 (stereo not given) | 94 |
| CCCN1CCC(c2cccc(O)c2)C1 (stereo not given) | 74 |

target: T4, D(2) dopamine receptor (Rattus norvegicus, UniProt P61169); assay: Binding affinity against [3H]U-86170 binding to Dopamine receptor D2 expressed in CHO-K1 cells; assay type: cell-based; settings: not given
T4 sequence (P61169 whole entry): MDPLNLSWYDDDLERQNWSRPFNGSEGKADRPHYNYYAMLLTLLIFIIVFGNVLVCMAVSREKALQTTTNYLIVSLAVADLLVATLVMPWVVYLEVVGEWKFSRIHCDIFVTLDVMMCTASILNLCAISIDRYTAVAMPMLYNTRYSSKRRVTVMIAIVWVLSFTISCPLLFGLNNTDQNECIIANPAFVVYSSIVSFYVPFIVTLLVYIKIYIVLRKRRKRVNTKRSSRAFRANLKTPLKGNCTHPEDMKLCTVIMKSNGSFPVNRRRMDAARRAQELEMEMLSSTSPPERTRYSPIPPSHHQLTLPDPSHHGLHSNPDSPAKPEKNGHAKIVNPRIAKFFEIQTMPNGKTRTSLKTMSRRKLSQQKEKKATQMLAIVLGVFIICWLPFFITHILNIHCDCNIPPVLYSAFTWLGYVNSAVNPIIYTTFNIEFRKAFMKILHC

| Compound | Ki [nM] |
| --- | --- |
| CCCN1CCC(c2cccc3ccccc23)C1 (stereo not given) | 71 |
| FC(F)(F)c1cccc(C2CCNC2)c1 (stereo not given) | 100 |
| c1ccc2c(C3CCNC3)cccc2c1 (stereo not given) | 264 |
| CCCN1CCC(c2cccc(O)c2)C1 (stereo not given) | 68 |

tested on: Rattus norvegicus; assay: Accumulation of 5-Hydroxytryptophan in striatal region in rat after injecting drug compound 65 min and NSD 1015 at a dose of 100 mg/kg administered subcutaneously, 30 min before death, tested in vivo; assay type: functional; settings: route subcutaneous

| Compound | Control [%] |
| --- | --- |
| CCCN1CCC[C@@H](c2cccc(S(C)(=O)=O)c2)C1 | 85 |
| CCCN1CCC(c2cccc3ccccc23)C1 (stereo not given) | 54 |
| CS(=O)(=O)c1cccc(C2CCNC2)c1 (stereo not given) | 92 |
| FC(F)(F)c1cccc(C2CCNC2)c1 (stereo not given) | 82 |
| c1ccc2c(C3CCNC3)cccc2c1 (stereo not given) | 93 |
| CCCN1CCC(c2cccc(O)c2)C1 (stereo not given) | 68 |

target: T4, D(2) dopamine receptor; assay: Inhibitory concentration against [3H]U-86170 binding to Dopamine receptor D2 expressed in CHO-K1 cells; assay type: cell-based; settings: not given

| Compound | IC50 [nM] |
| --- | --- |
| CS(=O)(=O)c1cccc(C2CCNC2)c1 (stereo not given) | > 1000 |
